The source of these data is ChEMBL document CHEMBL6177988, “Design, synthesis, biophysical and biological evaluation of original condensed pyrrolopyrimidine and pyrrolopyridine ligands as anti-SARS-CoV-2 agents targeting G4” (Eur J Med Chem, 2025).

The nature of data set [1]: Selectivity index, ratio of CC50 for cytotoxicity against human Caco-2 cells harboring ACE2-CI33 assessed as cell viability by celltiter glo assay to EC50 for antiviral activity against SARS-CoV-2 Wuhan infected in human A549 cells harboring ACE2-Cl33. The format is toxicity, cell-based. The settings on record: read-out: Ratio CC50/EC50.
Data set [2] relates to SARS-CoV-2. Put plainly: Antiviral activity against SARS-CoV-2 Wuhan infected in human A549 cells harboring ACE2-Cl33 at 0.1 MOI assessed as inhibition of viral replication pretreated with compounds for 2 hrs followed by infection for 1 hr and measured after 72 hrs post-infection by qRT-PCR analysis. As to conditions: Severe acute respiratory syndrome coronavirus 2, Wuhan. The format is functional, organism-based.

In data set [3] the test system is SARS-CoV-2. Put plainly: Antiviral activity against SARS-CoV-2 Wuhan infected in human Caco-2 cells harboring ACE2-Cl33 at 0.1 MOI assessed as inhibition of viral replication pretreated with compounds for 2 hrs followed by infection for 1 hr and measured after 72 hrs post-infection by qRT-PCR analysis. Format: functional, organism-based. The settings on record: Severe acute respiratory syndrome coronavirus 2, Wuhan.

A short description of data set [4]: Selectivity index, ratio of CC50 for cytotoxicity against human A549 cells harboring ACE2-CI33 assessed as cell viability by celltiter glo assay to EC50 for antiviral activity against SARS-CoV-2 Wuhan infected in human A549 cells harboring ACE2-Cl33. The format is toxicity, cell-based. The settings on record: read-out: Ratio CC50/EC50.
For data set [5], the system named is SARS-CoV-2. Put plainly: Antiviral activity against SARS-CoV-2 Delta B1.617.2 infected in human A549 cells harboring ACE2-Cl33 at 0.1 MOI assessed as inhibition of viral replication pretreated with compounds for 2 hrs followed by infection for 1 hr and measured after 72 hrs post-infection by qRT-PCR analysis. The format is functional, organism-based. As to conditions: Severe acute respiratory syndrome coronavirus 2, Delta B1.617.2, A549.

For the compound `CN(C)CCCNCc1ccc(-c2nc(-c3ccc(CNCCCN(C)C)cc3)c3ccn(-c4ccc(CNCCCN(C)C)cc4)c3n2)cc1`, the results for the selectivity ratio in data set [1] and in data set [4] were not below 4.57 and more than 14.6, respectively. The EC50 was 436 nM in the data set on SARS-CoV-2 [2] and 1540 nM in the data set on SARS-CoV-2 [3].

`O=c1c(O)cc([C@H]2Oc3cc(O)cc(O)c3C[C@H]2O)cc2c([C@H]3Oc4cc(O)cc(O)c4C[C@H]3O)cc(O)c(O)c12` [THEAFLAVIN]: the selectivity ratio in data set [4] is more than 83.3. `CN(C)CCCCNCc1ccc(-c2cc(-c3ccc(CNCCCCN(C)C)cc3)c3ccn(-c4ccccc4)c3c2)cc1`: the selectivity ratio in data set [1] amounted to 0.93; in data set [4], 1.88. Besides, the EC50 with SARS-CoV-2 [2] was 528 nM; with SARS-CoV-2 [3], 787 nM; in the data set with SARS-CoV-2 [5], 681 nM. Turning to `CN1CCN(CCCCNCc2ccc(-c3cc(-c4ccc(CNCCCCN5CCN(C)CC5)cc4)c4ccn(-c5ccccc5)c4c3)cc2)CC1`, the selectivity ratio in data set [4] was determined as 2.74. Still for that read-out and setting: the same measure for `CN(C)CCCCNCc1ccc(-c2nc(-c3ccc(CNCCCCN(C)C)cc3)c3ccn(-c4ccc(CNCCCCN(C)C)cc4)c3n2)cc1`: 6.67. On the same count and under the same terms, as for `CN(C)CCCCNCc1ccc(-c2nc(-c3ccc(CNCCCCN(C)C)cc3)c3ncn(-c4ccccc4)c3n2)cc1`, the figure is not below 2.68; as for `CN(C)CCCCNCc1ccc(-c2nc(-c3ccc(CNCCCCN(C)C)cc3)c3c(ccn3-c3ccccc3)n2)cc1`, more than 15.1. `CN(C)CCCNCc1ccc(-c2cn(-c3ccc(CNCCCN(C)C)cc3)c3ncnc(-c4ccc(CNCCCN(C)C)cc4)c23)cc1`: in data set [4], the selectivity ratio was more than 1.43. Same read-out and setting: the same measure for `CCC(CC)COC(=O)[C@H](C)N[P@](=O)(OC[C@H]1O[C@@](C#N)(c2ccc3c(N)ncnn23)[C@H](O)[C@@H]1O)Oc1ccccc1` [REMDESIVIR]: more than 1.18; for `CN(C)CCCCCNCc1ccc(-c2cc3c(ccn3-c3ccccc3)c(-c3ccc(CNCCCCCN(C)C)cc3)n2)cc1`: 8.18. Same read-out and setting: the same measure for `CN(C)CCCCNCc1ccc(-c2cc(-c3ccc(CNCCCCN(C)C)cc3)c3ccn(-c4ccccc4)c3n2)cc1`: 7.38; for `CN(C)CCCCNCc1ccc(-c2cc3c(ccn3-c3ccccc3)c(-c3ccc(CNCCCCN(C)C)cc3)n2)cc1`: 2.18. On to `CN1CCN(CCCCNCc2ccc(-c3ccc4ccc5ccc(-c6ccc(CNCCCCN7CCN(C)CC7)cc6)nc5c4n3)cc2)CC1`, for which the EC50 in the data set on SARS-CoV-2 [2] is more than 10000 nM. As to `CCN(CC)CCCCNCc1ccc(-c2cc3c(ccn3-c3ccccc3)c(-c3ccc(CNCCCCN(CC)CC)cc3)n2)cc1`, in data set [4], the selectivity ratio is more than 13.9. On to `CN(C)CCCCNCc1ccc(-c2ccc3ccc4ccc(-c5ccc(CNCCCCN(C)C)cc5)nc4c3n2)cc1`, for which the EC50 in the data set on SARS-CoV-2 [2] was found to be 9170 nM. The selectivity ratio in data set [4] is more than 1.09. The corresponding values for `CN(C)CCCCNCc1ccc(-c2nc(-c3ccccc3)c3ccn(-c4ccc(CNCCCCN(C)C)cc4)c3n2)cc1` are 920 nM and 2.64. In the case of `CN(C)CCCCNCc1ccc(-c2cn(-c3ccccc3)c3ncnc(-c4ccc(CNCCCCN(C)C)cc4)c23)cc1`, in data set [4], the selectivity ratio was more than 9.3. Consider `CN(C)CCCCCNCc1ccc(-c2cc(-c3ccc(CNCCCCCN(C)C)cc3)c3ccn(-c4ccccc4)c3c2)cc1`, for which the selectivity ratio in data set [1] is 1.88; in data set [4] it was 2.35. Moreover, the figures for the EC50 with SARS-CoV-2 [2], in the data set on SARS-CoV-2 [3] and in the data set on SARS-CoV-2 [5] were 1320 nM, 946 nM and 1280 nM, respectively.
